Biological target: T1, chimeric human H3 receptor (Homo sapiens, UniProt Q9Y5N1, E19D)
T1 construct: made in house; host or cells: Sf9 insect cells (baculovirus infection); P2 membrane preparation
Experiment: Chimeric human H3 receptor GTP binding assay (agonist-stimulated GTP-gamma35S binding, Example 7)
Assay type: biochemical
Conditions: assay of Example 7; "*" in Ki of Table II; read-out: Ki
Method in brief: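 IC50 values come from non-linear regression of dose-response curves of filter-bound GTP-gamma^35S, counted by scintillation. Membranes were from infected Sf9 cells carrying receptor plus G-protein subunits, 35 μg/tube, with 10 μM GDP present.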

T1 sequence (Q9Y5N1 with tags, fused parts or gaps E19D): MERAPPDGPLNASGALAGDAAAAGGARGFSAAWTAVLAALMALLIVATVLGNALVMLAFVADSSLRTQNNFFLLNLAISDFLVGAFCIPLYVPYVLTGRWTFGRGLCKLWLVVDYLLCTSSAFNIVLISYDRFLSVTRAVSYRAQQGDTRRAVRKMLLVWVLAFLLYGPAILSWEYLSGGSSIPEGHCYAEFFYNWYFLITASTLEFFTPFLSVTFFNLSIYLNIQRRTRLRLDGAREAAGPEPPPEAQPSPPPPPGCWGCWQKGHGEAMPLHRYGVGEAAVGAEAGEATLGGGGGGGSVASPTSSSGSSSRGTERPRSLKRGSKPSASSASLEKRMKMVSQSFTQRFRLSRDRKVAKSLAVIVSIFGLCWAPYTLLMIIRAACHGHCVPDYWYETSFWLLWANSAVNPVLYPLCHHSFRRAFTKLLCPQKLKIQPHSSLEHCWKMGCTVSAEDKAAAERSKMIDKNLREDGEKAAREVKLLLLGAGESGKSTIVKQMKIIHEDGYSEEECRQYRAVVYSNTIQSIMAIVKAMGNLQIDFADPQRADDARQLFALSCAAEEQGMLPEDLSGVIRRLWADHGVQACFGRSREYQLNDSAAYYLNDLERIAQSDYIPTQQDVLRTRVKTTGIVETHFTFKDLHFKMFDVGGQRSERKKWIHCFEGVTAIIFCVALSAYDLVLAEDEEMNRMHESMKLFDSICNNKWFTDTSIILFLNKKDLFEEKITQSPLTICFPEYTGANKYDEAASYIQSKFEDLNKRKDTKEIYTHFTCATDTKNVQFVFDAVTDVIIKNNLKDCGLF

Ki, < 1 µM:
CCOC(=O)c1cccc(-c2ccc(N3CCN(CC(=O)N4CCN(C5CCC5)CC4)CC3)cc2)c1 [Compound 1200, ethyl 4′-{4-[2-(4-cyclobutylpiperazin-1-yl)-2-oxoethyl]piperazin-1-yl}biphenyl-3-carboxylate]
CCOC(=O)c1ccc(N2CCN(CC(=O)N3CCN(C4CCC4)CC3)CC2)cc1 [Compound 1201, ethyl 4-{4-[2-(4-cyclobutylpiperazin-1-yl)-2-oxoethyl]piperazin-1-yl}benzoate]
COC(=O)c1ccc(N2CCN(CC(=O)N3CCN(C4CCC4)CC3)CC2)nc1 [Compound 1202, methyl 6-{4-[2-(4-cyclobutylpiperazin-1-yl)-2-oxoethyl]piperazin-1-yl}nicotinate]
CCC(C)NC(=O)c1cccc(N2CCN(CC(=O)N3CCN(C4CCC4)CC3)CC2)c1 (stereo not shown) [Compound 1203, N-(sec-butyl)-3-{4-[2-(4-cyclobutylpiperazin-1-yl)-2-oxoethyl]piperazin-1-yl}benzamide]
CCC(C)NC(=O)c1ccc(N2CCN(CC(=O)N3CCN(C4CCC4)CC3)CC2)cc1 (stereo not shown) [Compound 1204, N-(sec-butyl)-4-{4-[2-(4-cyclobutylpiperazin-1-yl)-2-oxoethyl]piperazin-1-yl}benzamide]
CCC(C)NC(=O)c1ccc(N2CCN(CC(=O)N3CCN(C4CCC4)CC3)CC2)nc1 (stereo not shown) [Compound 1205, N-(sec-butyl)-6-{4-[2-(4-cyclobutylpiperazin-1-yl)-2-oxoethyl]piperazin-1-yl}nicotinamide]
CCN(CC)C1CCN(CC(=O)N2CCN(C(C)C)CC2)C1 (stereo not shown) [Compound 1206, N,N-diethyl-1-[2-(4-isopropylpiperazin-1-yl)-2-oxoethyl]pyrrolidin-3-amine]
O=C(CC1CCCC1)NC1CCN(CC(=O)N2CCN(C3CCC3)CC2)CC1 [Compound 1208, N-{1-[2-(4-cyclobutylpiperazin-1-yl)-2-oxoethyl]piperidin-4-yl}-2-cyclopentylacetamide]
O=C(CC1CCCCC1)NC1CCN(CC(=O)N2CCN(C3CCC3)CC2)CC1 [Compound 1209, N-{1-[2-(4-cyclobutylpiperazin-1-yl)-2-oxoethyl]piperidin-4-yl}-2-cyclohexylacetamide]
CCCC(C)C(=O)NC1CCN(CC(=O)N2CCN(C3CCC3)CC2)CC1 (stereo not shown) [Compound 1210, N-{1-[2-(4-cyclobutylpiperazin-1-yl)-2-oxoethyl]piperidin-4-yl}-2-methylpentanamide]
Cc1cc(C)cc(C(=O)NC2CCN(CC(=O)N3CCN(C4CCC4)CC3)CC2)c1 [Compound 1211, N-{1-[2-(4-cyclobutylpiperazin-1-yl)-2-oxoethyl]piperidin-4-yl}-3,5-dimethylbenzamide]
Cc1ccc(C(=O)NC2CCN(CC(=O)N3CCN(C4CCC4)CC3)CC2)cc1C [Compound 1212, N-{1-[2-(4-cyclobutylpiperazin-1-yl)-2-oxoethyl]piperidin-4-yl}-3,4-dimethylbenzamide]
CCOc1cccc(C(=O)NC2CCN(CC(=O)N3CCN(C4CCC4)CC3)CC2)c1 [Compound 1213, N-{1-[2-(4-cyclobutylpiperazin-1-yl)-2-oxoethyl]piperidin-4-yl}-3-ethoxybenzamide]
COc1ccc(C(=O)NC2CCN(CC(=O)N3CCN(C4CCC4)CC3)CC2)cc1F [Compound 1214, N-{1-[2-(4-cyclobutylpiperazin-1-yl)-2-oxoethyl]piperidin-4-yl}-3-fluoro-4-methoxybenzamide]
O=C(CCC1CCCC1)NC1CCN(CC(=O)N2CCN(C3CCC3)CC2)CC1 [Compound 1215, N-{1-[2-(4-cyclobutylpiperazin-1-yl)-2-oxoethyl]piperidin-4-yl}-cyclopentylpropanamide]
CC(C)(C)CC(=O)NC1CCN(CC(=O)N2CCN(C3CCC3)CC2)CC1 [Compound 1216, N-{1-[2-(4-cyclobutylpiperazin-1-yl)-2-oxoethyl]piperidin-4-yl}-3,3-dimethylbutanamide]
Cc1ccc(C(=O)NC2CCN(CC(=O)N3CCN(C4CCC4)CC3)CC2)cc1 [Compound 1217, N-{1-[2-(4-cyclobutylpiperazin-1-yl)-2-oxoethyl]piperidin-4-yl}-4-methylbenzamide]
CCCc1ccc(C(=O)NC2CCN(CC(=O)N3CCN(C4CCC4)CC3)CC2)cc1 [Compound 1218, N-{1-[2-(4-cyclobutylpiperazin-1-yl)-2-oxoethyl]piperidin-4-yl}-4-propylbenzamide]
CC(C)c1ccc(C(=O)NC2CCN(CC(=O)N3CCN(C4CCC4)CC3)CC2)cc1 [Compound 1219, N-{1-[2-(4-cyclobutylpiperazin-1-yl)-2-oxoethyl]piperidin-4-yl}-4-isopropylbenzamide]
CCOc1ccc(C(=O)NC2CCN(CC(=O)N3CCN(C4CCC4)CC3)CC2)cc1 [Compound 1221, N-{1-[2-(4-cyclobutylpiperazin-1-yl)-2-oxoethyl]piperidin-4-yl}-4-ethoxybenzamide]
CSc1ccc(C(=O)NC2CCN(CC(=O)N3CCN(C4CCC4)CC3)CC2)cc1 [Compound 1222, N-{1-[2-(4-cyclobutylpiperazin-1-yl)-2-oxoethyl]piperidin-4-yl}-4-(methylthio)benzamide]
CCSc1ccc(C(=O)NC2CCN(CC(=O)N3CCN(C4CCC4)CC3)CC2)cc1 [Compound 1223, N-{1-[2-(4-cyclobutylpiperazin-1-yl)-2-oxoethyl]piperidin-4-yl}-4-(ethylthio)benzamide]
O=C(NC1CCN(CC(=O)N2CCN(C3CCC3)CC2)CC1)c1ccc(Oc2ccccc2)cc1 [Compound 1224, N-{1-[2-(4-cyclobutylpiperazin-1-yl)-2-oxoethyl]piperidin-4-yl}-4-phenoxybenzamide]
O=C(NC1CCN(CC(=O)N2CCN(C3CCC3)CC2)CC1)c1ccccc1 [Compound 1225, N-{1-[2-(4-cyclobutylpiperazin-1-yl)-2-oxoethyl]piperidin-4-yl}benzamide]
O=C(NC1CCN(CC(=O)N2CCN(C3CCC3)CC2)CC1)C1CC2CCC1C2 (stereo not shown) [Compound 1226, N-{1-[2-(4-cyclobutylpiperazin-1-yl)-2-oxoethyl]piperidin-4-yl}bicyclo[2.2.1]heptane-2-carboxamide]
O=C(NC1CCN(CC(=O)N2CCN(C3CCC3)CC2)CC1)C1CCCCC1 [Compound 1227, N-{1-[2-(4-cyclobutylpiperazin-1-yl)-2-oxoethyl]piperidin-4-yl} cyclohexanecarboxamide]
O=C(NC1CCN(CC(=O)N2CCN(C3CCC3)CC2)CC1)C1CCCCCC1 [Compound 1228, N-{1-[2-(4-cyclobutylpiperazin-1-yl)-2-oxoethyl]piperidin-4-yl} cycloheptanecarboxamide]
Cc1cc(C)cc(C(=O)NC2CCN(CC(=O)N3CCN(C4CCC4)CC3)C2)c1 (stereo not shown) [Compound 1229, N-{1-[2-(4-cyclobutylpiperazin-1-yl)-2-oxoethyl]pyrrolidin-3-yl}-3,5-dimethylbenzamide]
Cc1cccc(C(=O)NC2CCN(CC(=O)N3CCN(C4CCC4)CC3)C2)c1 (stereo not shown) [Compound 1230, N-{1-[2-(4-cyclobutylpiperazin-1-yl)-2-oxoethyl]pyrrolidin-3-yl}-3-methylbenzamide]
Cc1ccc(C(=O)NC2CCN(CC(=O)N3CCN(C4CCC4)CC3)C2)cc1 (stereo not shown) [Compound 1231, N-{1-[2-(4-cyclobutylpiperazin-1-yl)-2-oxoethyl]pyrrolidin-3-yl}-4-methylbenzamide]
Cc1ccc(C(=O)NC2CCN(CC(=O)N3CCN(C4CCC4)CC3)C2)cc1C (stereo not shown) [Compound 1232, N-{1-[2-(4-cyclobutylpiperazin-1-yl)-2-oxoethyl]pyrrolidin-3-yl}-3,4-dimethylbenzamide]
O=C(NC1CCN(CC(=O)N2CCN(C3CCC3)CC2)C1)c1ccc2ccccc2c1 (stereo not shown) [Compound 1233, N-{1-[2-(4-cyclobutylpiperazin-1-yl)-2-oxoethyl]pyrrolidin-3-yl}-2-naphthamide]
CCCc1ccc(C(=O)NC2CCN(CC(=O)N3CCN(C4CCC4)CC3)C2)cc1 (stereo not shown) [Compound 1234, N-{1-[2-(4-cyclobutylpiperazin-1-yl)-2-oxoethyl]pyrrolidin-3-yl}-4-propylbenzamide]
CC(C)c1ccc(C(=O)NC2CCN(CC(=O)N3CCN(C4CCC4)CC3)C2)cc1 (stereo not shown) [Compound 1235, N-{1-[2-(4-cyclobutylpiperazin-1-yl)-2-oxoethyl]pyrrolidin-3-yl)-4-isopropylbenzamide]
COc1cccc(C(=O)NC2CCN(CC(=O)N3CCN(C4CCC4)CC3)C2)c1 (stereo not shown) [Compound 1236, N-{1-[2-(4-cyclobutylpiperazin-1-yl)-2-oxoethyl]pyrrolidin-3-yl}-3-methoxybenzamide]
COc1ccc(C(=O)NC2CCN(CC(=O)N3CCN(C4CCC4)CC3)C2)cc1 (stereo not shown) [Compound 1237, N-{1-[2-(4-cyclobutylpiperazin-1-yl)-2-oxoethyl]pyrrolidin-3-yl}-4-methoxybenzamide]
CCOc1cccc(C(=O)NC2CCN(CC(=O)N3CCN(C4CCC4)CC3)C2)c1 (stereo not shown) [Compound 1239, N-{1-[2-(4-cyclobutylpiperazin-1-yl)-2-oxoethyl]pyrrolidin-3-yl}-3-ethoxybenzamide]
